In US5807899A, “Triphenylethylenes, process for their production, pharmaceutical preparations that contain these triphenylethylenes as well as their use for the production of pharmaceutical agents” (Schering Aktiengesellschaft, priority 1995, dated 1998):

What was measured:
[1] = test system: HeLa cell line; experiment: Transactivation assay for antiestrogenic action, HeLa cell line; type: cell-based; conditions: Homo sapiens, antiestrogenic action in transactivation assay
Protocol: The compounds of general formula I according to this application are distinguished by a new type of side chain on the phenoxy radical in comparison to the already known tamoxifen derivatives. […] As mentioned an estrogenic partial action can also be present in the-compounds according to the invention. The antiestrogenic and optionally estrogenic action of the compounds according to the invention was determined in a transactivation assay [Demirpence, E.; Duchesne, M.-J.; Badia, E.; Gagne, D.; and Pons, M.: MVLN Cells: A Bioluminescent MCF-7-Derived Cell Line to Study the Modulation of Estrogenic Activity; J. Steroid Molec. Biol.. Vol. 46, No. 3, 355-364 (1993) as well as Savouret, J. F.; Bailly, A.; Misrahi, M.; Rauch, C.; Redeuilh, G.; Chauchereau, A. and Milgrom, E.: Characterization of the Hormone Responsive Element Involved in the Regulation of the Progesterone Receptor Gene, The EMBO Journal Vol. 10, No. 7, 1875-1883 (1991)].
The IC50 values for the new compounds lie in the nanomolar range. In the HeLa cell line, the following IC50 values are produced for the compounds of Examples 5, 12, 13 and 16 (test implementation according to the bibliographic references indicated above): […]

[2] = test system: estrogens (antiestrogenic / estrogenic activity); conditions: reference compound; cited from earlier work

| SMILES | IC50 [1] [nM] | antiestrogenic / estrogenic profile of tamoxifen [2] |
| --- | --- | --- |
| CCC(=C(c1ccc(O)cc1)c1ccc(OCCCCC[S+]([O-])Cc2ccccn2)cc1)c1ccccc1 (centres unmarked) [Example 12, 4-((E,Z)-2-Phenyl-1-{4-[5-(pyridin-2-ylmethanesulfinyl)-pentyloxy]-phenyl}-but-1-enyl)-phenol] | 2.8 |  |
| CC/C(=C(\c1ccccc1)c1ccc(OCCN(C)C)cc1)c1ccccc1 [tamoxifen] |  | antiestrogens with estrogenic partial action |
| CCC(=C(c1ccc(O)cc1)c1ccc(OCCCCCSCc2ccccn2)cc1)c1ccccc1 [Example 11, 4-((E,Z)-2-Phenyl-1-{4-[5-(pyridin-2-ylmethylsulfidyl)-pentyloxy]-phenyl}-but-1-enyl)-phenol] | 5 |  |

More lines, in order of falling IC50 [1], values ahead:

| IC50 [1] [nM] | SMILES | antiestrogenic / estrogenic profile of tamoxifen [2] |
| --- | --- | --- |
| 17 | CCC(=C(c1ccc(I)cc1)c1ccc(OCCCCC[S+]([O-])CCCC(F)(F)C(F)(F)F)cc1)c1ccccc1 (centres unmarked) [Example 15, (5-{4-[(E,Z)-1-(4-Iodophenyl)-2-phenyl-but-1-enyl]-phenoxy}-pentyl)-(4,4,5,5,5-pentafluoropentyl)-sulfoxide] |  |
| 1 | CCC(=C(c1ccc(O)cc1)c1ccc(OCCCCC[S+]([O-])CCCC(F)(F)C(F)(F)F)cc1)c1ccccc1 (centres unmarked) [Example 5, 4-(1-{4-[5-(4,4,5,5,5-Pentafluoropentanesulfinyl)-pentyloxy]-phenyl}-2-phenyl-but-1-enyl)-phenol] |  |
